Data taken from article PMC11806654, “In Vitro Discovery of a Therapeutic Lead for HFMD From a Library Screen of Rocaglates/Aglains” (Journal of Medical Virology, 2025).
“Also recorded” adds a separate entry of the source. Read-outs that look alike come from different tables or passages of the source.

What was measured:
[1] = system: A549; set-up: method as in PMID 11170675; conditions: A549 cell line; cited from earlier work
[2] = system: P-388; set-up: method as in PMID 11170675; conditions: P-388 cell line; cited from earlier work
[3] = system: NSC-34 cells; assay: alamarBlue cytotoxicity screen; conditions: screen, 10 µM
[4] = in vitro; conditions: mouse
[5] = system: EV-A71; assay: High-throughput immunofluorescence antiviral screen in NSC-34 cells; format: cell-based, human enterovirus A71; conditions: for log reduction at 10 µM: Enterovirus A
[6] = in vitro; conditions: mouse; remark: listed apart in the source
Experimental: (§1) The complete cytotoxicity profiles of selected rocaglate/aglain derivatives against NSC‐34 or SH‐SY5Y cells were determined via the alamarBlue assay. Treated cells were incubated with the compounds for 12 h (NSC‐34) or 24 h (SH‐SY5Y). Negative and vehicle controls of this assay involved cells treated with fresh reduced serum DMEM and 0.1% DMSO, respectively. Cell viability in each treatment group was determined based on the intensity of colorimetric changes of each treatment group. […] Following incubation, infected cells were rinsed with sterile 1X PBS to remove any unbound virus particles. Specific concentrations of respective compounds were added to the cells in triplicates and incubated for 12 h (NSC‐34) or 24 h (SH‐SY5Y). At the end of the incubation period, two cycles of freeze‐thaws (−80°C; 37°C) were performed on the plates before collection of supernatants from each treatment or control group for virus titre measurement via plaque assay, as described.
(§2) (A) NSC‐34 cells were treated with various concentrations of respective compounds, in the presence or absence of EV‐A71 (MOI 1) infection. Resulting cell viability and virus yield from respective experimental setups were determined via alamarBlue and plaque assays, respectively. […] For (B), (C) and (D), virus titres were represented in bars and shown on the left‐hand y‐axis, whereas cell viabilities were presented in lines and illustrated on the right‐hand y‐axis.
(§3) Figure S1. Validation of cytotoxicity and antiviral profiles of compound 13 in NSC-34 cells. NSC-34 cells were treated with specific concentrations of compound 13 in the presence or absence of EV-A71 (MOI 1) infection. Resulting cell viability and virus yield from respective experimental setups were determined via alamarBlue^TM and plaque assays, respectively.

[7] = system: NSC-34 cells; assay: in vitro
Experimental: as §1, §2, §3

[8] = system: EV-A71; assay: Plaque-assay antiviral validation in NSC-34 cells; format: cell-based, human enterovirus A71; conditions: for Maximum viral titre reduction observed in dose response (Log): EV-A71 MOI 1, plaque assay; for EC50: Enterovirus A, EVA71, EV-A71 MOI 1, plaque assay
Experimental: as §1, §2, §3

[9] = system: NF-κB; conditions: read-out: NF-κB inhibition IC50; cited from earlier work
[10] = alamarBlue cytotoxicity screen; conditions: mouse, NSC-34 cells
[11] = system: CV-A16; assay: Pan-enterovirus plaque assay in SH-SY5Y cells, CV-A16; format: cell-based, Coxsackievirus A16
Experimental: as §1
(§4) (A) NSC‐34 cells were treated with various concentrations of respective compounds, in the presence or absence of EV‐A71 (MOI 1) infection. Resulting cell viability and virus yield from respective experimental setups were determined via alamarBlue and plaque assays, respectively. […]

[12] = system: positive- and negative-sense RNA of EV-A71; assay: qRT-PCR strand-specific viral RNA quantification; format: cell-based, human enterovirus A71; conditions: 6 and 8 µM, 12 and 24 h.p.i., SH-SY5Y cells
[13] = system: EV-A71; assay: Pre-treatment assay in SH-SY5Y cells; conditions: cells exposed to compound before infection
Experimental: (§5) The assays were performed in SH‐SY5Y cells in triplicates and resulting virus titres were quantified via plaque assays as previously described [27].
(§6) (A) Time‐of‐addition (TOA) and time‐of‐removal (TOR) of compound 13 (8 μM) at specific time points across the EV‐A71 replication cycle in SH‐SY5Y cells. For TOA, virus‐containing media was aspirated and replaced with compound 13 (8 μM) at 0, 2, 4, 6, 8, 10, 12 or 18 h postinfection (h.p.i.). […] At 24 h.p.i., supernatant from each treatment and control group was collected for virus quantification via plaque assay. Separately, SH‐SY5Y cells were infected with EV‐A71 (MOI 1) and treated with specific concentrations of compound 13 according to previously published experimental schemes for (B) pre‐treatment, (C) co‐treatment and (D) entry‐bypass assays [27]. At 24 h.p.i., supernatant was collected and used for virus yield measurement via plaque assay. Every assay was performed in triplicates with error bars representing standard deviation from the mean of triplicates. 0.1% DMSO served as the mock control group of respective assays.
(§7) In the pre‐treatment set‐up, host cells were first treated with the compound before virus challenge. […] Conversely, in the co‐treatment assay extracellular virions were treated with the compound before infecting the cells. […]

[14] = alamarBlue cytotoxicity dose response, SH-SY5Y; format: cell-based; conditions: human, SH-SY5Y cells
Experimental: as §1, §4

[15] = alamarBlue cytotoxicity dose response, HBMECs; format: cell-based; conditions: human, primary human brain microvascular endothelial cells (HBMECs)
Experimental: (§8) Evaluation of cytotoxicity and antiviral profiles of compound 13 in primary human brain microvascular endothelial cells (HBMECs). HBMECs were treated with specific concentrations of compound 13, in the presence or absence of EV-A71 (MOI 1) infection. Resulting cell viability and virus yield from respective experimental setups were determined via alamarBlue^TM and plaque assays, respectively.

[16] = system: EV-A71; assay: Plaque-assay antiviral dose response in RD cells; format: cell-based, human enterovirus A71; conditions: Enterovirus A, EVA71
Experimental: as §1, §4

[17] = system: replication-defective EV-A71 replicon; assay: Nano-luciferase replicon assay, replication-defective; conditions: SH-SY5Y cells, 24 h
Experimental: (§9) Using DharmaFECT 1 transfection reagent (Dharmacon), SH‐SY5Y cells seeded in 96‐well plates were transfected with either our established replication‐competent or replication‐defective EV‐A71 replicon construct [27, 29] and incubated for 4 h. At the end of incubation, the transfected cells were washed with sterile 1X PBS and treated with 0.1% DMSO or respective concentrations of test compound or positive controls. Guanidine hydrochloride (GuHCl) was used as positive control for the replication‐competent replicon, and cycloheximide (CHX) was used as positive control for the replication‐defective replicon. After 24 h, luciferase signal detection was subsequently performed using the Nano‐Glo kit (Promega, Madison, WI, USA) with a GLOMAX Multi‐Detection System microplate reader (Promega, Madison, WI, USA).
(§10) Guanidine hydrochloride (GuHCl), an eukaryotic RNA transcription inhibitor [38], and cycloheximide (CHX), an inhibitor of the elongation phase during RNA translation [39], were used as positive controls of respective assays. 0.1% DMSO served as the mock control group of respective assays. Luminescence readings generated by SH‐SY5Y cells transfected with either the established replication‐competent or replication‐defective replicons [27] were measured using a microplate reader and normalized against the DMSO control. […]

[18] = system: EV-A71; assay: Plaque-assay antiviral dose response in SH-SY5Y cells; format: cell-based, human enterovirus A71
Experimental: as §1, §4

[19] = system: EV-A71; assay: Time-of-addition / time-of-removal assay in SH-SY5Y cells; format: cell-based, human enterovirus A71; conditions: 8 μM
[20] = system: replication-competent EV-A71 replicon; assay: Nano-luciferase replicon assay, replication-competent; conditions: SH-SY5Y cells, 24 h
Experimental: as §9, §10

[21] = alamarBlue cytotoxicity dose response, RD; format: cell-based; conditions: human, RD cells
[22] = system: EV-A71; assay: Co-treatment assay in SH-SY5Y cells; conditions: compound present during infection
Experimental: as §5, §6, §7

[23] = system: EV-A71; assay: Plaque-assay antiviral dose response in primary HBMECs; format: cell-based, human enterovirus A71; conditions: Enterovirus A, EVA71
Experimental: as §8

[24] = system: CV-A6; assay: Pan-enterovirus plaque assay in SH-SY5Y cells, CV-A6; format: cell-based
Experimental: as §1, §4

[25] = system: EV-A71; assay: Entry-bypass assay (viral RNA transfection) in SH-SY5Y cells; format: cell-based, human enterovirus A71
Experimental: Having excluded the virus attachment and entry steps, we deemed it likely that aglain 13 targets the early post‐entry stages of EV‐A71 life cycle involving the initial virus uncoating, viral RNA genome replication or protein production. As packaging and secretion of newly synthesized EV‐A71 virions from infected cells generally begin after 6 h.p.i., compound 13 is unlikely to interfere with the later phases of the virus life cycle (Figure 6A). The ability of compound 13 to interfere with EV‐A71 post‐entry events was further corroborated via our entry‐bypass assay wherein host cells were first transfected with in vitro isolated viral RNA before compound treatment (Figure 6D). […] As compound 13 targets the intracellular replication steps of EV‐A71, its effects on two primary pre‐packaging stages of the virus life cycle, namely viral RNA replication and protein production, were evaluated.

[26] = system: EV-A71 VP2; assay: Immunoblotting of viral protein; conditions: SH-SY5Y cells, versus vehicle control
Experimental: Cells from specific treatment and control groups were lysed with lysis buffer containing 1X Laemmli buffer. The resulting cell lysates were heated for 10 min at 95°C and subjected to SDS‐PAGE run in 10% acrylamide gels at 100 V for 2 h. The proteins were then transferred to a polyvinylidene fluoride membrane using the Trans‐Blot Turbo system (Bio‐Rad). Following a 20 min membrane blocking using 2% bovine serum albumin (BSA) dissolved in Tris‐buffered saline‐Tween 20 (TBST), specific viral protein and host loading controls were probed using the mouse antibodies targeting EV‐A71 VP2 (MAB979) and host β‐actin, respectively. After 1 h incubation with constant rocking at room temperature, the membranes were subjected to three rounds of washes using TBST before incubation at room temperature with horseradish peroxidase (HRP) conjugated goat anti‐mouse IgG secondary antibody (Thermo Fisher Scientific) for 1 h. Following three rounds of membrane washing with TBST, specific protein bands were developed using the Immobilon Western Chemiluminescent HRP substrate (Merck Millipore) for 3 min. […]
Lysates of EV‐A71 (MOI 1)‐infected SH‐SY5Y cells treated with specific concentrations of compound 13 were used for (A) qRT‐PCR‐based viral strand‐specific RNA quantification or (B) immunoblotting measurement of specific protein levels. […]

[27] = system: SARS-CoV-2; set-up: method as in PMID 39117283; conditions: cited from earlier work
[28] = EVA71, NSC-34, 12 h, read-out: EV-A71 inhibition (logs), reduction in viral titre, screen, 10 µM, NSC-34 cells, EV-A71 MOI 1, 12 h
[29] = EVA71, screen, 10 µM, NSC-34 cells, EV-A71 MOI 1, 12 h, read-out: EV-A71 inhibition (logs), reduction in viral titre

Structure (SMILES): CC=C(C)C(=O)NC1CCCN1C(=O)C1C(c2ccccc2)C2(c3ccc(OC)cc3)Oc3cc(OC)cc(OC)c3C1(O)C2O (stereo not shown) [Compound 9, (‐)‐elliptifoline]
- cytotoxic activity ED50 [1]: 18.9 µg/mL
- cytotoxic activity ED50 [2]: 3.4 µg/mL

Structure (SMILES): COC(=O)C1C(c2ccccc2)C2(c3ccc(OC)cc3)Oc3cc(OC)cc(OC)c3C1(O)C2O (stereo not shown) [Compound 17]
- host cell cytotoxicity in screen [3]: non‐cytotoxic
- viability at 12 h, 10 µM [4]: 108%
- log reduction at 10 µM [5, 28]: 0.1
- antiviral activity in screen ([5]; screen, 10 µM, NSC-34 cells): no measurable antiviral activity

Structure (SMILES): COC(=O)C1C(c2ccccc2)C2(c3ccc(Br)cc3)Oc3cc(OC)cc(OC)c3C1(O)C2=O (stereo not shown) [Compound 18]
- CC50 at 12 h [6]: 13.1 µM
- host cell cytotoxicity in dose response [7]: significant degree of cytotoxicity

Structure (SMILES): COC(=O)C1C(c2ccccc2)C2(c3ccc(Br)cc3)C(=O)C1(O)c1c(OC)cc(OC)cc1N2C (stereo not shown) [Compound 15]
- CC50 at 12 h [6]: > 50 µM
- Maximum viral titre reduction observed in dose response (Log) [8]: 0.74 Log
- EC50 [8]: 5.27 µM
- viability at 12 h, 10 µM [4]: 91%
- log reduction at 10 µM [5, 28]: 1.2

Structure (SMILES): COc1ccc(C23Oc4cc(OC)cc(OC)c4C(O)(C(C(=O)N4CCCC4OC)C2c2ccccc2)C3O)cc1 (stereo not shown) [Compound 8, (‐)‐ponapensin]
- IC50 [9]: 0.06 µM

Structure (SMILES): COc1ccc(C23Oc4cc(OC)cc(OC)c4C(O)(C2=O)C(c2ccccc2)C3c2ccccc2)cc1 (stereo not shown) [Compound 14]
- CC50 at 12 h ([6]; NSC-34 cells): 42.6 µM
- Maximum viral titre reduction observed in dose response (Log) [8]: 0.82 Log
- EC50 [8]: 18.9 µM
- viability at 12 h, 10 µM [10]: 106%
- log reduction at 10 µM ([5]; EVA71, NSC-34, 12 h, screen, 10 µM, NSC-34 cells, EV-A71 MOI 1, 12 h, read-out: EV-A71 inhibition (logs), reduction in viral titre): ~1
- EV-A71 inhibition (logs), reduction in viral titre ([5]; screen, 10 µM, NSC-34 cells, EV-A71 MOI 1, 12 h): 1.0 logs

Structure (SMILES): COC(=O)C1C(O)C2(O)c3c(OC)cc(OC)cc3OC2(c2ccc(OC)cc2)C1c1ccccc1 (stereo not shown) [Compound 6, reference compound]
- log reduction at 10 µM [5, 29]: > 2
- antiviral activity in screen ([5]; screen, 10 µM, NSC-34 cells): appreciable antiviral activity

Structure (SMILES): COC(=O)C1C(c2ccccc2)C2(c3ccc(Br)cc3)C(O)C1(O)c1c(OC)cc(OC)cc1N2C (stereo not shown) [Compound 16]
- CC50 at 12 h [6]: > 50 µM
- Maximum viral titre reduction observed in dose response (Log) [8]: 0.89 Log
- EC50 [8]: 44.2 µM
- viability at 12 h, 10 µM [4]: 81%
- log reduction at 10 µM [5, 28]: 1.4
- antiviral activity in screen ([5]; screen, 10 µM, NSC-34 cells): showed antiviral activity

Structure (SMILES): COc1ccc(C23Oc4cc(OC)cc(OC)c4C(O)(C(c4c(F)c(F)c(F)c(F)c4F)C2c2ccccc2)C3O)cc1 (stereo not shown) [Compound 13]
- infectious CV-A16 titers ([11]; 6 and 8 µM, SH-SY5Y cells): significantly reduced
- EC50 ([11]; Enterovirus A, CVA16, CV-A16 in SH-SY5Y cells): 0.8 µM
- CC50 at 12 h [6]: 21.8 µM
- positive- and negative-sense RNA of EV-A71 [12]: significant decrease
- inhibition of EV-A71 replication, pre-treatment [13]: ineffective inhibition; also recorded: no significant inhibition
- CC50 at 24 h [14]: 11 µM
- downregulation of virus titer ([8]; 15 µM): approximately 2 logs
- selectivity index (SI = CC50/EC50) ([8]; EV-A71): 6.1
- Maximum viral titre reduction observed in dose response (Log) [8]: 2.53 Log
- EC50 [8]: 3.57 µM
- Cell Viability (%) ([3]; 12 h): 91%
- viability at 10 µM ([4]; Cell Viability (%), screen, 10 µM, NSC-34 cells, 12 h): > 90%
- CC50 [15]: 89.4 µM
- EC50 [16]: 0.43 µM
- luciferase signal, replication-defective replicon [17]: significantly decreased
- downregulation of virus titer ([18]; 8 µM, SH-SY5Y cells): approximately 2 logs
- EC50 ([18]; Enterovirus A, EVA71, EV-A71 in SH-SY5Y cells): 5.43 µM
- time of addition at which EV-A71 yields were suppressed ([19]; TOA): < 6 h.p.i.
- viral load on time-of-removal ([19]; TOR, every time point up to 18 h.p.i.): continuous reduction in the viral load
- luciferase signal, replication-competent replicon [20]: significantly decreased
- CC50 [21]: 11.2 µM
- inhibition of EV-A71 replication, co-treatment [22]: ineffective inhibition; also recorded: no significant inhibition
- log reduction at 10 µM [5, 28]: 2.3
- EC50 [23]: 32.8 µM
- infectious CV-A6 titers ([24]; 6 and 8 µM, SH-SY5Y cells): significantly reduced
- EC50 ([24]; Enterovirus A, CVA6, CV-A6 in SH-SY5Y cells): 0.51 µM
- suppression of virus yields, entry-bypass ([25]; 6 µM): 0.88 logs
- suppression of virus yields, entry-bypass ([25]; 8 µM): 2.27 logs
- downregulation of viral protein expression levels (VP2) [26]: > 50%

Structure (SMILES): COc1ccc(C23Oc4cc(OC)cc(OC)c4C24NC(C)=NC4(O)C(C(=O)N(C)OC)C3c2ccccc2)cc1 (stereo not shown) [Compound 4]
- host cell cytotoxicity in screen [3]: unacceptably toxic; also recorded: high level of host cell cytotoxicity
- inhibition of SARS-CoV-2 replication [27]: inhibition of SARS‐CoV‐2 replication
- log reduction at 10 µM [5, 28]: > 2
- antiviral activity in screen ([5]; screen, 10 µM, NSC-34 cells): appreciable antiviral activity

Structure (SMILES): CONC(=O)C1C(O)C2(O)c3c(OC)cc(OC)cc3OC2(c2ccc(OC)cc2)C1c1ccccc1 (stereo not shown) [Compound 3, CR‐1‐31b, reference compound]
- host cell cytotoxicity in screen [3]: unacceptably toxic; also recorded: high level of host cell cytotoxicity
- log reduction at 10 µM [5, 29]: > 2
- antiviral activity in screen ([5]; screen, 10 µM, NSC-34 cells): appreciable antiviral activity
